Results: the NIST ThermoML archive (doi:10.1021/je3013342)

How the values were obtained:
[1] = xn = mol fraction of the nth substance listed; details: 101 kPa, Liquid, Vibrating tube method
[2] = 101 kPa, Liquid, Vibrating tube method

CCCCCl [1-chlorobutane] + C[N+](=O)[O-]
[1], x1 = 1
Details | mass density [kg/m3]
298.15 K | 881.17
308.15 K | 870
318.15 K | 858.67

C[N+](=O)[O-] [nitromethane] + CCCCCl
mass density [kg/m3], [1]
Details | x2 = 0 | x2 = 0.1107 | x2 = 0.2174 | x2 = 0.3236 | x2 = 0.3932 | x2 = 0.4856 | x2 = 0.5569 | x2 = 0.6626 | x2 = 0.7722 | x2 = 0.8646
298.15 K | 1130.76 | 1080.18 | 1040.11 | 1007.02 | 987.92 | 965.38 | 949.92 | 929.96 | 911.75 | 898.07
308.15 K | 1117.14 | 1067 | 1027.27 | 994.47 | 975.54 | 953.21 | 937.92 | 918.09 | 900.15 | 886.65
318.15 K | 1103.39 | 1053.7 | 1014.29 | 982.09 | 963.01 | 940.87 | 925.76 | 906.2 | 888.4 | 875.07

CCCCCCl [1-chloropentane]
[2]
Details | mass density [kg/m3]
298.15 K | 877.09
308.15 K | 866.97
318.15 K | 856.73

ClCCCCl [1,3-dichloropropane]
[2]
Details | mass density [kg/m3]
298.15 K | 1180.1
308.15 K | 1167.7
318.15 K | 1155.21

ClC(Cl)C(Cl)Cl [1,1,2,2-tetrachloroethane] + C[N+](=O)[O-]
mass density [kg/m3], [1]
Details | x1 = 0.0711 | x1 = 0.1888 | x1 = 0.2563 | x1 = 0.3464 | x1 = 0.4341 | x1 = 0.5431 | x1 = 0.6654 | x1 = 0.8211 | x1 = 0.9285 | x1 = 1
298.15 K | 1191.08 | 1275.68 | 1318 | 1366.65 | 1408.57 | 1454.03 | 1497.84 | 1544.6 | 1571.92 | 1588.23
308.15 K | 1177.12 | 1261.26 | 1303.41 | 1351.85 | 1393.61 | 1438.91 | 1482.56 | 1529.17 | 1556.4 | 1572.66
318.15 K | 1163.03 | 1246.76 | 1288.69 | 1336.94 | 1378.54 | 1423.68 | 1467.2 | 1513.67 | 1540.82 | 1557.04

C[N+](=O)[O-] [nitromethane] + ClCCCCCl
[1], x2 = 0
Details | mass density [kg/m3]
298.15 K | 1130.95
308.15 K | 1117.32
318.15 K | 1103.57

C[N+](=O)[O-] [nitromethane] + ClC(Cl)Cl
mass density [kg/m3], [1]
Details | x2 = 0 | x2 = 0.1197 | x2 = 0.1772 | x2 = 0.3007 | x2 = 0.4009 | x2 = 0.5 | x2 = 0.5978 | x2 = 0.7194 | x2 = 0.8607 | x2 = 0.9562
298.15 K | 1130.86 | 1189.05 | 1214.82 | 1265.96 | 1303.55 | 1337.74 | 1368.78 | 1404.19 | 1441.14 | 1463.58
308.15 K | 1117.24 | 1174.6 | 1200 | 1250.36 | 1287.37 | 1321 | 1351.55 | 1386.34 | 1422.65 | 1444.71
318.15 K | 1103.5 | 1160.01 | 1185.02 | 1234.59 | 1271 | 1304.11 | 1334.09 | 1368.25 | 1403.89 | 1425.56

ClC(Cl)Cl [trichloromethane] + C[N+](=O)[O-]
[1], x1 = 1
Details | mass density [kg/m3]
298.15 K | 1473.42
308.15 K | 1454.33
318.15 K | 1434.98

CCCCCl [1-chlorobutane]
[2]
Details | mass density [kg/m3]
298.15 K | 881.17
308.15 K | 870
318.15 K | 858.67

CC(Cl)(Cl)Cl [1,1,1-trichloroethane] + C[N+](=O)[O-]
mass density [kg/m3], [1]
Details | x1 = 0.0921 | x1 = 0.1727 | x1 = 0.2614 | x1 = 0.3951 | x1 = 0.4862 | x1 = 0.5904 | x1 = 0.7066 | x1 = 0.8358 | x1 = 0.9012 | x1 = 1
298.15 K | 1161.87 | 1185.48 | 1208.35 | 1238.06 | 1255.6 | 1273.47 | 1291.18 | 1308.67 | 1316.72 | 1328.24
308.15 K | 1147.77 | 1170.98 | 1193.5 | 1222.71 | 1239.96 | 1257.52 | 1274.93 | 1292.14 | 1300.08 | 1311.45
318.15 K | 1133.54 | 1156.35 | 1178.49 | 1207.19 | 1224.13 | 1241.39 | 1258.49 | 1275.42 | 1283.24 | 1294.47

C[N+](=O)[O-] [nitromethane] + ClCCCl
mass density [kg/m3], [1]
Details | x2 = 0 | x2 = 0.1132 | x2 = 0.2235 | x2 = 0.3249 | x2 = 0.4672 | x2 = 0.5586 | x2 = 0.6264 | x2 = 0.7349 | x2 = 0.857 | x2 = 0.923
298.15 K | 1130.86 | 1147.31 | 1162.54 | 1175.69 | 1192.94 | 1203.25 | 1210.49 | 1221.8 | 1233.37 | 1239.2
308.15 K | 1117.24 | 1133.59 | 1148.71 | 1161.77 | 1178.89 | 1189.11 | 1196.29 | 1207.48 | 1218.91 | 1224.67
318.15 K | 1103.5 | 1119.73 | 1134.75 | 1147.71 | 1164.69 | 1174.81 | 1181.96 | 1192.99 | 1204.28 | 1209.97

CC(Cl)(Cl)Cl [1,1,1-trichloroethane]
[2]
Details | mass density [kg/m3]
298.15 K | 1328.24
308.15 K | 1311.45
318.15 K | 1294.47

C[N+](=O)[O-] [nitromethane] + CC(Cl)(Cl)Cl
[1], x2 = 0
Details | mass density [kg/m3]
298.15 K | 1130.91
308.15 K | 1117.29
318.15 K | 1103.55

ClCCCl [1,2-dichloroethane] + C[N+](=O)[O-]
[1], x1 = 1
Details | mass density [kg/m3]
298.15 K | 1245.59
308.15 K | 1230.96
318.15 K | 1216.16

ClCCCl [1,2-dichloroethane]
[2]
Details | mass density [kg/m3]
298.15 K | 1245.59
308.15 K | 1230.96
318.15 K | 1216.16

C[N+](=O)[O-] [nitromethane]
[2]
Details | mass density
298.15 K | 1130.9 kg/m3 [middle of 5 runs]
308.15 K | 1117.28 kg/m3 [middle of 6 runs]
318.15 K | 1103.53 kg/m3 [middle of 6 runs]

ClCCCCCl [1,4-dichlorobutane]
[2]
Details | mass density [kg/m3]
298.15 K | 1133.94
308.15 K | 1123
318.15 K | 1112

ClC(Cl)Cl [trichloromethane]
[2]
Details | mass density [kg/m3]
298.15 K | 1473.42
308.15 K | 1454.33
318.15 K | 1434.98

C[N+](=O)[O-] [nitromethane] + ClCCCCl
[1], x2 = 0
Details | mass density [kg/m3]
298.15 K | 1130.9
308.15 K | 1117.28
318.15 K | 1103.53

ClC(Cl)C(Cl)Cl [1,1,2,2-tetrachloroethane]
[2]
Details | mass density [kg/m3]
298.15 K | 1588.23
308.15 K | 1572.66
318.15 K | 1557.04

CCCCCCl [1-chloropentane] + C[N+](=O)[O-]
mass density [kg/m3], [1]
Details | x1 = 0.1043 | x1 = 0.1721 | x1 = 0.2575 | x1 = 0.3466 | x1 = 0.4525 | x1 = 0.5435 | x1 = 0.6864 | x1 = 0.8325 | x1 = 0.8859 | x1 = 1
298.15 K | 1075.06 | 1045.39 | 1014.58 | 987.6 | 960.73 | 941.21 | 916.34 | 895.75 | 889.18 | 877.09
308.15 K | 1062.09 | 1032.77 | 1002.33 | 975.7 | 949.19 | 929.96 | 905.49 | 885.27 | 878.82 | 866.97
318.15 K | 1048.99 | 1020.02 | 989.95 | 963.67 | 937.53 | 918.59 | 894.51 | 874.65 | 868.33 | 856.73

ClCCCCl [1,3-dichloropropane] + C[N+](=O)[O-]
mass density [kg/m3], [1]
Details | x1 = 0.0878 | x1 = 0.1939 | x1 = 0.2938 | x1 = 0.3998 | x1 = 0.5028 | x1 = 0.6154 | x1 = 0.7207 | x1 = 0.8326 | x1 = 0.9404 | x1 = 1
298.15 K | 1135.58 | 1141.34 | 1146.79 | 1152.41 | 1157.65 | 1163.15 | 1168.07 | 1173.04 | 1177.55 | 1180.1
308.15 K | 1122.12 | 1128.05 | 1133.64 | 1139.39 | 1144.76 | 1150.38 | 1155.41 | 1160.49 | 1165.1 | 1167.7
318.15 K | 1108.53 | 1114.63 | 1120.37 | 1126.26 | 1131.76 | 1137.51 | 1142.65 | 1147.84 | 1152.56 | 1155.21

ClCCCCCl [1,4-dichlorobutane] + C[N+](=O)[O-]
mass density [kg/m3], [1]
Details | x1 = 0.0825 | x1 = 0.1759 | x1 = 0.2825 | x1 = 0.3815 | x1 = 0.4815 | x1 = 0.5911 | x1 = 0.6898 | x1 = 0.8208 | x1 = 0.9262 | x1 = 1
298.15 K | 1128.17 | 1126.77 | 1126.33 | 1126.62 | 1127.33 | 1128.46 | 1129.64 | 1131.38 | 1132.86 | 1133.94
308.15 K | 1114.98 | 1113.92 | 1113.86 | 1114.44 | 1115.42 | 1116.8 | 1118.18 | 1120.16 | 1121.81 | 1123
318.15 K | 1101.65 | 1100.97 | 1101.28 | 1102.17 | 1103.42 | 1105.05 | 1106.65 | 1108.88 | 1110.7 | 1112

C[N+](=O)[O-] [nitromethane] + ClC(Cl)C(Cl)Cl
[1], x2 = 0
Details | mass density [kg/m3]
298.15 K | 1130.86
308.15 K | 1117.24
318.15 K | 1103.5

C[N+](=O)[O-] [nitromethane] + CCCCCCl
[1], x2 = 0
Details | mass density [kg/m3]
298.15 K | 1130.86
308.15 K | 1117.23
318.15 K | 1103.48
